According to ChEMBL document CHEMBL1127596, “Leukotriene B4 (LTB4) receptor antagonists: a series of (hydroxyphenyl)pyrazoles” (J Med Chem, 1994):

Biological target: Leukotriene B4 receptor 1 (Homo sapiens, UniProt Q15722)
Test: Inhibition of [3H]Leukotriene B4 binding to human PMN

Leukotriene B4 receptor 1, sequence (Q15722 whole entry): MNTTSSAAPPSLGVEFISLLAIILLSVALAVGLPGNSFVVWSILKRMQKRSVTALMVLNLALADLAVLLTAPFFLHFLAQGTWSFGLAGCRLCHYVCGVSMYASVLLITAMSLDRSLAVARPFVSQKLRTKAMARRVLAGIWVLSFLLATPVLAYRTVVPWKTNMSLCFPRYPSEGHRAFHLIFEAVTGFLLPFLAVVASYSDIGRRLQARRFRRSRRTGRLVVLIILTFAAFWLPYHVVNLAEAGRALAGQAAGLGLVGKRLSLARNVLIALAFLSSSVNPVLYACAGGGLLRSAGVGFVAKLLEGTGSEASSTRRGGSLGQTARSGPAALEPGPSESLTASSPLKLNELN

Row | IC50 [nM] | Structure (SMILES)
1 | 319 | CCCc1c(OCCCOc2cc(O)c(C(=O)/C=C/N(C)C)cc2CC)ccc2c1OC(C(=O)O)CC2 (stereo not given)
2 | 55 | CCc1cc(-c2cc[nH]n2)c(O)cc1OCCCCCOc1ccc(CC(=O)O)cc1
3 | 87 | CCc1cc(-c2cc[nH]n2)c(O)cc1OCCCOc1ccc(CCC(=O)O)cc1
4 | 834 | CCCc1c(CCC(=O)O)cccc1OCCCOc1cc(O)c(-c2cc[nH]n2)cc1CC
5 | 107 | CCc1cc(-c2ccnn2C)c(O)cc1OCCCCCC(C)(C)c1nnn[nH]1
6 | 4.5 | CCCc1c(OCCCOc2cc(O)c(-c3cc[nH]n3)cc2CC)ccc2c1OC(C(=O)O)CC2 (stereo not given)
7 | 82 | CCc1cc(-c2cc[nH]n2)c(O)cc1OCCCCCOc1ccc(C(=O)O)cc1
8 | 5.7 | CCc1cc(-c2cc[nH]n2)c(O)cc1OCCCOc1cccc(CCC(=O)O)c1
9 | 28 | CCc1cc(-c2cc[nH]n2)c(O)cc1OCCCCCOc1ccc(CCC(=O)O)cc1
10 | > 1000 | O=C(O)CCc1cccc(OCCCOc2ccc(-c3cc[nH]n3)cc2)c1
11 | 54 | CCc1cc(-c2ccn[nH]2)c(O)cc1OCCCOc1ccc(CC(=O)O)cc1
12 | 12 | CCc1cc(-c2cc[nH]n2)c(O)cc1OCCCOc1ccccc1CC(=O)O
13 | 9.3 | CCc1cc(-c2ccn(C)n2)c(O)cc1OCCCCCC(C)(C)c1nnn[nH]1
14 | 11 | CCc1cc(-c2cc[nH]n2)c(O)cc1OCCCOc1cccc(CC(=O)O)c1
15 | 738 | CCCc1ccc(CCC(=O)O)cc1OCCCOc1cc(O)c(-c2cc[nH]n2)cc1CC
